Measured values from patent US20100261219A1, “TEST METHOD OF BIOAVAILABILITY AND BIOEQUIVALENCE FOR XENOBIOTICS USING GENETIC PROFILING” (priority 2008, published 2010).
Where two headings read alike, the source gives them in different places.

Tests used:
[1] = in vivo; cited from earlier work

SMILES	t1/2 [1]	Concentration of risperidone in blood plasma: influence of genotype (genotype of CYP2D6*10)	Concentration of risperidone in blood plasma (participants with mutant type, 48 hours after dosing)	Concentration of risperidone in blood plasma (participants with only wild type, 24 hours after dosing)	Concentration of risperidone in blood plasma (wild type participants compared to heterozygous or mutant type (FIG. 7-9))
CC/C(=C(\c1ccccc1)c1ccc(OCCN(C)C)cc1)c1ccccc1 [Tamoxifen]	8 days	–	–	–	–
Cc1nc2n(c(=O)c1CCN1CCC(c3noc4cc(F)ccc34)CC1)CCCC2 [risperidone, Risperidone]	–	significantly varied	capable of being measured	reduced below a measurable level	considerably low
CCN(CC)CCCC(C)Nc1ccnc2cc(Cl)ccc12 (stereo not shown) [Chloroquine]	41 days	–	–	–	–
CC/C(=C(\c1ccccc1)c1ccc(OCCNC)cc1)c1ccccc1 [demethyltamoxifen]	11 days	–	–	–	–
